Measured values from ChEMBL document CHEMBL4342499, “Novel Stapling by Lysine Tethering Provides Stable and Low Hemolytic Cationic Antimicrobial Peptides” (J Med Chem, 2020).

Legend:
Escherichia coli [1] = tested on: Escherichia coli
Pseudomonas aeruginosa = experiment: Antimicrobial activity against Pseudomonas aeruginosa assessed as inhibition of microbial growth incubated for 16 hrs by microdilution method; type: functional
Staphylococcus aureus [2] = experiment: Antimicrobial activity against methicillin-resistant Staphylococcus aureus assessed as inhibition of microbial growth incubated for 16 hrs by microdilution method; type: functional
Staphylococcus aureus [3] = experiment: Antimicrobial activity against Staphylococcus aureus assessed as inhibition of microbial growth incubated for 16 hrs by microdilution method; type: functional
Escherichia coli [4] = experiment: Antimicrobial activity against Escherichia coli assessed as inhibition of microbial growth incubated for 16 hrs by microdilution method; type: functional
Listeria monocytogenes = experiment: Antimicrobial activity against Listeria monocytogenes assessed as inhibition of microbial growth incubated for 16 hrs by microdilution method; type: functional

| SMILES | MIC99.9 (Escherichia coli [1]) [µg/mL] | MIC99.9 (Pseudomonas aeruginosa) [µg/mL] | MIC99.9 (Staphylococcus aureus [2]) [µg/mL] | MIC99.9 (Staphylococcus aureus [3]) [µg/mL] | MIC99.9 (Escherichia coli [4]) [µg/mL] | MIC99.9 (Listeria monocytogenes) [µg/mL] |
| --- | --- | --- | --- | --- | --- | --- |
| CN[C@H](CC(C)C)C(=O)N[C@H]1C(=O)N[C@@H](CC(N)=O)C(=O)N[C@H]2C(=O)N[C@H]3C(=O)N[C@H](C(=O)N[C@H](C(=O)O)c4cc(O)cc(O)c4-c4cc3ccc4O)[C@H](O)c3ccc(c(Cl)c3)Oc3cc2cc(c3O[C@@H]2O[C@H](CO)[C@@H](O)[C@H](O)[C@H]2O[C@H]2C[C@](C)(N)[C@H](O)[C@H](C)O2)Oc2ccc(cc2Cl)[C@H]1O [VANCOMYCIN] | >128 | >128 | 2 | 2 | >128 | 1 |
| CCN1CCN(C(=O)N[C@@H](C(=O)N[C@@H]2C(=O)N3C(C(=O)O)=C(CSc4nnnn4C)CS[C@H]23)c2ccc(O)cc2)C(=O)C1=O [CEFOPERAZONE] | >128 | 2 | >128 | 0.5 | 0.125 | 16 |
